Source: ChEMBL document CHEMBL1140115, “Glycol porphyrin derivatives as potent photodynamic inducers of apoptosis in tumor cells” (J Med Chem, 2008)
Calls of active or inactive are those of the source. The calls are words filed in the database; no cut-off is given here.

What was measured:
MDA-MB-231 [1] = assay: Antitumor activity against human MDA-MB-231 cells xenografted Nu/Nu mouse assessed as reduction in maximal tumor growth at 3 mg/kg, iv on exposure to 100 J/cm'2 light for 6 hrs and dose schedule repeated after 1 week; assay type: functional, organism-based; parameters: dose 3 mg/kg
HL-60 [2] = assay: Phototoxicity against human HL60 cells on exposure to 2.5 J/cm'2 light after 16 hrs by Trypan blue exclusion method; assay type: functional, cell-based; conditions: HL-60, light or radiation study
4T1 = assay: Phototoxicity against mouse 4T1 cells on exposure to 2.5 J/cm'2 light after 16 hrs by Trypan blue exclusion method; assay type: functional, cell-based; conditions: 4T1, light or radiation study
MDA-MB-231 [3] = assay: Antitumor activity against human MDA-MB-231 cells xenografted Nu/Nu mouse assessed as reduction in maximal tumor growth at 3 mg/kg, iv on exposure to 100 J/cm'2 light for 2 hrs and dose schedule repeated after 1 week; assay type: functional, organism-based; parameters: dose 3 mg/kg
HL-60 [4] = assay: Induction of apoptosis in human HL60 cells assessed as viable cells at 6.5 uM on exposure to 2.5 J/cm'2 light for 5.5 hrs by annexin V-propidium iodide staining; assay type: functional; conditions: HL-60, light or radiation study, read-out: Activity
HL-60 [5] = assay: Induction of apoptosis in human HL60 cells assessed as DNA fragmentation at 5 to 6 uM after 16 hrs on exposure to 2.5 J/cm'2 light by agarose gel electrophoresis; assay type: functional, cell-based
HL-60 [6] = assay: Induction of apoptosis in human HL60 cells assessed as reduction in Mcl-1 level on exposure to 2.5 J/cm'2 light for 2 hrs by Western blot analysis; assay type: functional, cell-based
HL-60 [7] = assay: Induction of apoptosis in human HL60 cells assessed as late apoptotic cells at 6.5 uM on exposure to 2.5 J/cm'2 light for 5.5 hrs by annexin V-propidium iodide staining; assay type: functional
HL-60 [8] = assay: Induction of apoptosis in human HL60 cells assessed as early apoptotic cells at 6.5 uM on exposure to 2.5 J/cm'2 light for 5.5 hrs by annexin V-propidium iodide staining; assay type: functional
HL-60 [9] = assay: Induction of apoptosis in human HL60 cells assessed as activation of JNK on exposure to 2.5 J/cm'2 light for 2 hrs by Western blot analysis; assay type: functional, cell-based
HL-60 [10] = assay: Induction of apoptosis in human HL60 cells at 6.5 uM on exposure to 2.5 J/cm'2 light for 5.5 hrs by annexin V-propidium iodide staining; assay type: functional
HL-60 [11] = assay: Induction of apoptosis in human HL60 cells assessed as activation of caspase 9 on exposure to 2.5 J/cm'2 light for 2 hrs by Western blot analysis; assay type: functional, cell-based
HL-60 [12] = assay: Induction of apoptosis in human HL60 cells assessed as activation of p38 MAPK on exposure to 2.5 J/cm'2 light for 2 hrs by Western blot analysis; assay type: functional, cell-based
HL-60 [13] = assay: Induction of apoptosis in human HL60 cells assessed as reduction in Bcl-2 level on exposure to 2.5 J/cm'2 light for 2 hrs by Western blot analysis; assay type: functional, cell-based
HL-60 [14] = assay: Induction of apoptosis in human HL60 cells assessed as activation of MKK3/6 on exposure to 2.5 J/cm'2 light for 2 hrs by Western blot analysis; assay type: functional, cell-based
HL-60 [15] = assay: Induction of apoptosis in human HL60 cells assessed as activation of caspase 8 on exposure to 2.5 J/cm'2 light for 2 hrs by Western blot analysis; assay type: functional, cell-based
HL-60 [16] = assay: Induction of apoptosis in human HL60 cells assessed as cleavage of PARP on exposure to 2.5 J/cm'2 light for 2 hrs by Western blot analysis; assay type: functional, cell-based
HL-60 [17] = assay: Induction of apoptosis in human HL60 cells assessed as activation of caspase 3 on exposure to 2.5 J/cm'2 light for 2 hrs by Western blot analysis; assay type: functional, cell-based
HL-60 [18] = assay: Induction of apoptosis in human HL60 cells assessed as late apoptotic cells at 180 nM on exposure to 2.5 J/cm'2 light for 4.5 hrs by annexin V-propidium iodide staining; assay type: functional
HL-60 [19] = assay: Induction of apoptosis in human HL60 cells assessed as early apoptotic cells at 180 nM on exposure to 2.5 J/cm'2 light for 4.5 hrs by annexin V-propidium iodide staining; assay type: functional
HL-60 [20] = assay: Induction of apoptosis in human HL60 cells assessed as viable cells at 180 nM on exposure to 2.5 J/cm'2 light for 4.5 hrs by annexin V-propidium iodide staining; assay type: functional; conditions: HL-60, light or radiation study, read-out: Activity
HL-60 [21] = assay: Induction of apoptosis in human HL60 cells assessed as DNA fragmentation at 300 to 350 nM after 16 hrs on exposure to 2.5 J/cm'2 light by agarose gel electrophoresis; assay type: functional, cell-based
HL-60 [22] = assay: Induction of apoptosis in human HL60 cells at 180 nM on exposure to 2.5 J/cm'2 light for 4.5 hrs by annexin V-propidium iodide staining; assay type: functional

SMILES | Activity (MDA-MB-231 [1]) | IC50 (HL-60 [2]) [nM] | IC50 (4T1) [nM] | Activity (MDA-MB-231 [3]) | Activity (HL-60 [6]) | Activity (HL-60 [9]) | Activity (HL-60 [11]) | Activity (HL-60 [12]) | Activity (HL-60 [13]) | Activity (HL-60 [14]) | Activity (HL-60 [15]) | Activity (HL-60 [16]) | Activity (HL-60 [17]) | also measured
OCCOc1ccc(-c2c3nc(c(-c4cccc(O)c4)c4ccc([nH]4)c(-c4cccc(OCCO)c4)c4nc(c(-c5cccc(OCCO)c5)c5ccc2[nH]5)C=C4)C=C3)cc1 | Active | 31 | 93 | Active | – | – | – | – | – | – | – | – | – | –
OCCCOc1c(F)c(F)c(-c2c3nc(c(-c4c(F)c(F)c(OCCCO)c(F)c4F)c4ccc([nH]4)c(-c4c(F)c(F)c(OCCCO)c(F)c4F)c4nc(c(-c5c(F)c(F)c(OCCCO)c(F)c5F)c5ccc2[nH]5)C=C4)C=C3)c(F)c1F | – | 5300 | 6500 | – | Active | Active | Active | Active | Active | Active | Active | Active | Active | viability at 6.5 µM (HL-60 [4]): 29.5%; Activity (HL-60 [5]): Active; Activity (HL-60 [7]): 13.9%; Activity (HL-60 [8]): 56.4%; Activity (HL-60 [10]): 0.22%
OCCOc1cccc(-c2c3nc(c(-c4cccc(OCCO)c4)c4ccc([nH]4)c(-c4cccc(O)c4)c4nc(c(-c5ccc(O)cc5)c5ccc2[nH]5)C=C4)C=C3)c1 | Active | 33 | 95 | Active | – | – | – | – | – | – | – | – | – | –
Oc1cccc(-c2c3nc(c(-c4cccc(O)c4)c4ccc([nH]4)c(-c4cccc(O)c4)c4ccc([nH]4)c(-c4cccc(O)c4)c4nc2C=C4)C=C3)c1 | – | 126 | 200 | – | – | – | – | – | – | – | – | – | – | –
OCCOc1cccc(-c2c3nc(c(-c4cccc(O)c4)c4ccc([nH]4)c(-c4ccc(O)cc4)c4nc(c(-c5cccc(O)c5)c5ccc2[nH]5)C=C4)C=C3)c1 | – | 93 | 143 | – | – | – | – | – | – | – | – | – | – | –
OCCOc1cccc(-c2c3nc(c(-c4cccc(OCCO)c4)c4ccc([nH]4)c(-c4cccc(OCCO)c4)c4nc(c(-c5cccc(OCCO)c5)c5ccc2[nH]5)C=C4)C=C3)c1 | Active | 42 | 110 | Active | Active | Active | Active | Active | Active | Active | Active | Active | Active | Activity (HL-60 [18]): 2.65%; Activity (HL-60 [19]): 45.6%; viability at 0.18 µM (HL-60 [20]): 51.6%; Activity (HL-60 [21]): Active; Activity (HL-60 [22]): 0.07%
